The text below walks through data of PMC10940318, “Targeted intracellular delivery of dimeric STINGa by two pHLIP peptides for treatment of solid tumors” (Frontiers in Pharmacology, 2024).

Data set [1] relates to THP-1-Blue-ISG cells polarized into M2-type macrophages. The experiment in a line: Activation of IFN (IRF-SEAP reporter) in M2-polarized macrophages. Format: cell-based, human. Conditions: THP1-Blue-ISG cells polarized by PMA, IL-4/IL-13, 2 h in DMEM without FBS pH 6.9, then 48 h, QUANTI-Blue, absorbance 655 nm, read-out: EC50 of activation of IRF signaling. The protocol:
THP-1-Blue™-ISG cells (Invivogen) expressing an interferon (IFN) regulatory factor (IRF)-inducible secreted embryonic alkaline phosphatase (SEAP) reporter construct were used. Cells were maintained in RPMI growth medium supplemented with L-glutamine, sodium pyruvate, 10% fetal bovine serum (FBS), normocin and ciprofloxacin hydrochloride in a humidified atmosphere of 5% CO2 and 95% air at 37°C. Cells were seeded in 96-well plates at a density of 75,000 cells/well. To generate M2 polarized macrophages, cells were treated first with 185 ng/mL phorbol 12-myristate 13-acetate (PMA) for 6 h and then 20 ng/mL of interleukin 4 (IL-4) and 20 ng/mL of interleukin 13 (IL-13) (both from PeproTech) were added for another 16 h of treatment. […] After a 2-h incubation, an equal volume of RPMI supplemented with 20% heat-inactivated FBS was added, and cells were incubated for another 48 h. SEAP activity was accessed using the QUANTI-Blue™ Solution (Invivogen) to evaluate type I interferon protein levels: 150 μL of the colorimetric reagent was added to 50 μL of cell supernatant for 30 min, 37°C, followed by absorption measurement at 655 nm.

A short description of data set [2]: Stopped-flow fluorescence kinetics of membrane insertion and exit. Format: physicochemical. Conditions: POPC liposomes. The method, then:
Fluorescence kinetics was measured using a SFM-300 mixing system (Bio-Logic Science Instruments) in combination with the MOS-450 spectrometer with the temperature control set to 25°C. All samples were degassed before measurement to minimize air bubbles in the samples. pHLIP-mMSA/2pHLIP-dMSA and POPC samples were incubated overnight to reach equilibrium, when most of the agent was associated with liposome lipid bilayers. […] To follow exit of pHLIP-mMSA/2pHLIP-dMSA from the membrane, a low pH solution containing 14 μM pHLIP-mMSA/2pHLIP-dMSA and 2.8 mM POPC was mixed with dibasic phosphate buffer to raise the pH from 4 to 7.4. To monitor the fluorescence intensity changes during pHLIP-mMSA/2pHLIP-dMSA insertion induced by the pH change, the emission signal was observed through a cut-off 320 nm filter at an excitation of 295 nm.

Data set [3] deals with human serum albumin (HSA) (Homo sapiens, UniProt P02768). The protocol: HSA was initially dissolved to 500 μM in deionized water and further diluted using pH 7.6 phosphate buffer. Dansylamide (DNSA) or dansylglycine (DNSG) (both from Tokyo Chemical Industry) were used as fluorescent markers, which are known to bind to specific sites on HSA. Each well contained 100 μL of sample consisting of the fluorescent marker DNSA or DNSG (1 μM), with different concentrations of pHLIP agents (0, 5, or 10 μM) and concentrations of HSA ranging from 0 μM to 100 μM. Samples were incubated for 2 h at 37°C. […] Fluorescence measurements from each well were performed at 485 nm with excitation at 365 nm at 37°C. As a control, binding of DNSA and DNSG were probed with each agent in absence of HSA. Before the measurements a plate reader optimization test was run. Data were fitted individually and globally using the Michaelis-Menten equation. […] Data was fitted by nonlinear least squares curve fitting procedures employing the Levenberg Marquardt algorithm using Origin 8.5.
Table S1. Competitive binding assay.
Figure S8. HSA binding. […] The global fitting was performed with each set of data and the fitting curves are shown as black, blue and red lines.

A value given as a limit tells only on which side of the number the result lay.

Turning to “ADQDNPWRAYLDLLFPTDTLLLDLLWCG [2pHLIP-dMSA]”, the EC50 in data set [1] was 200 nM. The “time to completion of insertion into the lipid bilayer” value in data set [2] (pH drop from pH 7.4 to 4, 25°C, fluorescence ex 295 nm) was at most 100 ms. Further, the “kinetics of membrane insertion (in words)” value in data set [2] (pH drop from pH 7.4 to 6, compared with pHLIP-mMSA) is “more efficient and faster than the insertion of pHLIP-mMSA”. The “exit from the lipid bilayer (in words)” value in data set [2] (pH rise from pH 4 to 7.4 and from pH 4 to 5.5, compared with pHLIP-mMSA) was “slightly slower”. Besides, in data set [3], the “binding to HSA (in words)” value is “strong binding”.
